Measured values published in US20060069132A1, “Azolecarboxamide herbicides” (priority 2004, published 2006).

Tests used:
[1] = system: lambsquarters; assay: Test B pre-/postemergence herbicide test; type: in vivo, Chenopodium album
How it was run: (§1)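 Seeds were planted and treated preemergence with compounds formulated in a non-phytotoxic solvent mixture containing surfactant, while plants at the 1- to 4-leaf stage (2 to 18 cm) received postemergence sprays. Flooded paddy plants were grown to the 2-leaf stage. After 13 to 15 days in a greenhouse, injury was visually rated 0–100 against untreated controls.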

[2] = system: giant foxtail; assay: Test A pre-/postemergence herbicide test; type: in vivo, Setaria faberi
How it was run: (§2)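 Plants are held in greenhouse about ten days after treatment, then compared with untreated controls and scored 0 (no effect) to 100 (complete control). Preemergence dosing is a directed soil spray on sown sandy loam; postemergence dosing is spray to runoff at 2–10 cm height.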

[3] = system: barnyardgrass; assay: Test A pre-/postemergence herbicide test; type: in vivo, Echinochloa crus-galli
How it was run: as §2

[4] = system: cocklebur; assay: Test B pre-/postemergence herbicide test; type: in vivo, Xanthium strumarium
How it was run: (§3)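 Flooded paddy rice and barnyardgrass were treated at the 2-leaf stage; upland plantings received compound either on sown seed or on 1- to 4-leaf seedlings. All were kept 13–15 days in a greenhouse and scored visually, 0–100, relative to untreated plants.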

[5] = system: velvetleaf; assay: Test B pre-/postemergence herbicide test; type: in vivo, Abutilon theophrasti
How it was run: as §1

[6] = system: rice; assay: Test B flooded paddy test; type: in vivo, Oryza sativa; conditions: 1000 g ai/ha, visual rating, scale 0 to 100 (0 no effect, 100 complete control), 13 to 15 days
How it was run: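 Visual ratings, 0 (no effect) to 100 (complete control), made versus controls after 13–15 d greenhouse. Paddy plants treated at 2-leaf stage; postemergence plants at 1- to 4-leaf stage, 2–18 cm tall.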

[7] = system: barnyardgrass; assay: Test B pre-/postemergence herbicide test; type: in vivo, Echinochloa crus-galli
How it was run: as §3

[8] = system: large crabgrass; assay: Test B pre-/postemergence herbicide test; type: in vivo, Digitaria sanguinalis
How it was run: as §1

[9] = system: morningglory; assay: Test A pre-/postemergence herbicide test; type: in vivo, Ipomoea spp.
How it was run: as §2

[10] = system: corn; assay: Test B pre-/postemergence herbicide test; type: in vivo, Zea mays
How it was run: as §1

[11] = system: ducksalad; assay: Test B flooded paddy test; type: in vivo, Heteranthera limosa; conditions: 1000 g ai/ha, visual rating, scale 0 to 100 (0 no effect, 100 complete control), 13 to 15 days
How it was run: (§4)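 After treating 2-leaf paddy plants or 2–18 cm postemergence plants (1 to 4 leaves) with formulated chemical, researchers kept them in a greenhouse for 13–15 days. Effects were judged visually versus controls: 0 indicates none, 100 total control.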

[12] = system: morningglory; assay: Test B pre-/postemergence herbicide test; type: in vivo, Ipomoea coccinea
How it was run: as §3

[13] = system: small flower umbrella sedge; assay: Test B flooded paddy test; type: in vivo, Cyperus difformis; conditions: 1000 g ai/ha, visual rating, scale 0 to 100 (0 no effect, 100 complete control), 13 to 15 days
How it was run: as §4

[14] = system: pigweed; assay: Test B pre-/postemergence herbicide test; type: in vivo, Amaranthus retroflexus
How it was run: as §1

[15] = system: wild oat; assay: Test B postemergence herbicide test; type: in vivo, Avena fatua; conditions: scale 0 (no effect) to 100 (complete control)
How it was run: as §4

[16] = system: Surinam grass; assay: Test B pre-/postemergence herbicide test; type: in vivo, Urochloa decumbens
How it was run: as §1

[17] = system: blackgrass; assay: Test B postemergence herbicide test; type: in vivo, Alopecurus myosuroides; conditions: scale 0 (no effect) to 100 (complete control)
How it was run: as §4

[18] = system: redroot pigweed; assay: Test A pre-/postemergence herbicide test; type: in vivo, Amaranthus retroflexus
How it was run: as §2

[19] = system: large crabgrass; assay: Test A pre-/postemergence herbicide test; type: in vivo, Digitaria sanguinalis
How it was run: as §2

[20] = system: giant foxtail; assay: Test B pre-/postemergence herbicide test; type: in vivo, Setaria faberi
How it was run: as §1

[21] = system: velvetleaf; assay: Test A pre-/postemergence herbicide test; type: in vivo, Abutilon theophrasti
How it was run: as §2

[22] = system: wheat; assay: Test B postemergence herbicide test; type: in vivo, Triticum aestivum; set-up: key to Wheat plant response rating: 0 = no effect, 100 = complete control; conditions: scale 0 (no effect) to 100 (complete control)
How it was run: as §4

[23] = system: barnyardgrass; assay: Test B flooded paddy test; type: in vivo, Echinochloa crus-galli; conditions: 1000 g ai/ha, visual rating, scale 0 to 100 (0 no effect, 100 complete control), 13 to 15 days
How it was run: as §4

[24] = 500 g ai/ha, visual rating 0-100, 0 no effect, 100 complete control, preemergence
[25] = Postemergence, 500 g ai/ha, visual rating after 13 to 15 days, scale 0 (no effect) to 100 (complete control)
[26] = postemergence, 125 g ai/ha, visual rating, scale 0 (no effect) to 100 (complete control)
[27] = preemergence, 125 g ai/ha, 0 to 100 scale, 0 is no effect, 100 is complete control
[28] = Postemergence, 500 g ai/ha, 0 to 100 scale, 0 no effect, 100 complete control
[29] = Postemergence, 2000 g ai/ha, 0 to 100 scale, 0 no effect, 100 complete control
[30] = Preemergence, 500 g ai/ha, visual rating, 0 to 100 scale (0 no effect, 100 complete control)
[31] = Preemergence, 2000 g ai/ha, visual rating, 0 to 100 scale (0 no effect, 100 complete control)
[32] = Postemergence, 500 g ai/ha, visual rating after 13 to 15 days
[33] = postemergence, 125 g ai/ha, visual rating

## CC(=NO)c1cc(NC(=O)c2cc(C(C)(C)C)nn2C)ccc1F [Compound 109]
[1]; [24]
  Plant response rating, Lambsquarters: 90
[1]; [25]
  Plant response rating, Lambsquarters: 20
[1]; [26]
  Lambsquarters plant response rating: 10
[1]; [27]
  Plant response rating, Lambsquarters: 20
[2]; [28]
  Foxtail, Giant plant response rating: 55
[2]; [29]
  Plant response rating, Foxtail, Giant: 90
[2]; [30]
  Foxtail, Giant plant response rating: 80
[2]; [31]
  Foxtail, Giant plant response rating: 90
[3]; [28]
  Barnyardgrass plant response rating: 75
[3]; [29]
  Plant response rating, Barnyardgrass: 90
[3]; [30]
  Barnyardgrass plant response rating: 85
[3]; [31]
  Barnyardgrass plant response rating: 90
[4]; [24]
  Plant response rating, Cocklebur: 20
[4]; [25]
  Plant response rating, Cocklebur: 70
[4]; [26]
  Cocklebur plant response rating: 30
[4]; [27]
  Plant response rating, Cocklebur: 0
[5]; [24]
  Plant response rating, Velvetleaf: 60
[5]; [25]
  Plant response rating, Velvetleaf: 20
[5]; [26]
  Velvetleaf plant response rating: 10
[5]; [27]
  Plant response rating, Velvetleaf: 20
[6]
  Rice plant response rating: 70
[7]; [24]
  Plant response rating, Barnyardgrass: 100
[7]; [25]
  Plant response rating, Barnyardgrass: 20
[7]; [26]
  Barnyardgrass plant response rating: 10
[7]; [27]
  Plant response rating, Barnyardgrass: 80
[8]; [24]
  Plant response rating, Crabgrass, Large: 100
[8]; [25]
  Plant response rating, Crabgrass, Large: 10
[8]; [26]
  Crabgrass, Large plant response rating: 10
[8]; [27]
  Plant response rating, Crabgrass, Large: 80
[9]; [28]
  Morningglory plant response rating: 25
[9]; [29]
  Plant response rating, Morningglory: 40
[9]; [30]
  Morningglory plant response rating: 35
[9]; [31]
  Morningglory plant response rating: 45
[10]; [24]
  Plant response rating, Corn: 10
[10]; [25]
  Plant response rating, Corn: 20
[10]; [26]
  Corn plant response rating: 10
[10]; [27]
  Plant response rating, Corn: 0
[11]
  Ducksalad plant response rating: 90
[12]; [24]
  Plant response rating, Morningglory: 100
[12]; [25]
  Plant response rating, Morningglory: 10
[12]; [26]
  Morningglory plant response rating: 0
[12]; [27]
  Plant response rating, Morningglory: 10
[13]
  Sedge, Umbrella plant response rating: 60
[14]; [24]
  Plant response rating, Pigweed: 100
[14]; [25]
  Plant response rating, Pigweed: 70
[14]; [26]
  Pigweed plant response rating: 20
[14]; [27]
  Plant response rating, Pigweed: 30
[15]; [32]
  Plant response rating, Oat, Wild: 30
[15]; [33]
  Oat, Wild plant response rating: 20
[16]; [24]
  Plant response rating, Surinam Grass: 80
[16]; [25]
  Plant response rating, Surinam Grass: 20
[16]; [26]
  Surinam Grass plant response rating: 10
[16]; [27]
  Plant response rating, Surinam Grass: 60
[17]; [32]
  Plant response rating, Blackgrass: 20
[17]; [33]
  Blackgrass plant response rating: 0
[18]; [28]
  Pigweed plant response rating: 100
[18]; [29]
  Plant response rating, Pigweed: 100
[18]; [30]
  Pigweed plant response rating: 75
[18]; [31]
  Pigweed plant response rating: 100
[19]; [28]
  Crabgrass, Large plant response rating: 20
[19]; [29]
  Plant response rating, Crabgrass, Large: 55
[19]; [30]
  Crabgrass, Large plant response rating: 80
[19]; [31]
  Crabgrass, Large plant response rating: 95
[20]; [24]
  Plant response rating, Foxtail, Giant: 100
[20]; [25]
  Plant response rating, Foxtail, Giant: 20
[20]; [26]
  Foxtail, Giant plant response rating: 20
[20]; [27]
  Plant response rating, Foxtail, Giant: 70
[21]; [28]
  Velvetleaf plant response rating: 25
[21]; [29]
  Plant response rating, Velvetleaf: 45
[21]; [30]
  Velvetleaf plant response rating: 15
[21]; [31]
  Velvetleaf plant response rating: 25
[22]; [32]
  Plant response rating, Wheat: 20
[22]; [33]
  Wheat plant response rating: 10
[23]
  Barnyardgrass plant response rating: 80
